According to US8741932B2, “Imidazopyridine derivatives” (Piramal Enterprises Limited, priority 2009, dated 2014):
Where two headings read alike, the source gives them in different places.

Key:
OVCAR 3 = test: Cytotoxicity assay (propidium iodide), OVCAR 3; assay type: cell-based; conditions: Homo sapiens; OVCAR 3 (C3c, ovarian); 48 hours
HCT116 = test: Cytotoxicity assay (propidium iodide), HCT116; assay type: cell-based; conditions: Homo sapiens, HCT-116; HCT116 (C4b, colon); 48 hours
Protocol: (§1) Cells from cell lines as mentioned in the table given below were seeded at a density of 3000 cells/well in a white opaque 96-well plate. Following incubation at 37° C./5% CO2 for a period of 18-24 hours, the cells were treated with various concentrations (stock solution was prepared in DMSO and subsequent dilutions were made in media as per ATCC guidelines) of the representative compounds of present invention (refer table 3) for a period of 48 hours. At the end of treatment, the spent culture medium was discarded, the cells were washed with 1×PBS and 200 μl of 7 μg/ml propidium iodide was added to each well. The plates were frozen at −70° C. for at least 24 hours. For analysis, the plates were brought to RT, allowed to thaw and were read in PolarStar fluorimeter with the fluorescence setting. The percentage of viable cells in the non treated set of wells was considered to be 100 and the percentage viability following treatment was calculated accordingly. IC50 values were calculated from graphs plotted using these percentages.

A2780 = test: Cytotoxicity assay (propidium iodide), A2780; assay type: cell-based; conditions: Homo sapiens; A2780 (C3a, ovarian); 48 hours
A549 = test: Cytotoxicity assay (propidium iodide), A549; assay type: cell-based; conditions: Homo sapiens; A549 (C1a, lung); 48 hours
Protocol: as §1

IL-6 = test: Human monocyte assay, LPS-stimulated IL-6; assay type: cell-based; conditions: Monocyte; human monocytes, 1 μg/ml LPS, 5 hours
How it was run: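 Adherent human PBMC-derived monocytes (2×10^4/well) were cultured 48 h, preincubated 30 min with compound or 0.5% DMSO, then stimulated with 1 μg/ml E. coli LPS for 5 h at 37° C. TNF-α and IL-6 in supernatants were measured by ELISA.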

H460 = test: Cytotoxicity assay (propidium iodide), H460; assay type: cell-based; conditions: Homo sapiens, NCI-H460; H460 (C1b, lung); 48 hours
PC3 = test: Cytotoxicity assay (propidium iodide), PC3; conditions: Homo sapiens, PC-3, 48 h, read-out: IC50 cytotoxicity
mTOR = molecular target: T1, mTOR (Homo sapiens, UniProt P42345); test: mTOR activity assay (cell ELISA, Phospho-AKT Ser 473, A2780 cells); assay type: cell-based
T1 construct: endogenous in cells; host or cells: A2780 ovarian cell line (ATCC)
Protocol: Seed cells (Ovarian cell line A2780, ATCC) were plated in a 96 well microtitre plate at a density of 50,000 cells/cm^2 in appropriate complete cell culture medium. The cells were allowed to adhere for 18-24 hours. The cells were allowed to starve for 24 hours. […] Then the cells were stimulated with 20% FCS for 30 minutes. A typical assay would consist of a set of unstimulated cells, a set of stimulated cells and a set of cells treated with compounds of present invention and a set of cells treated with the stimulator. The medium was discarded. The cells were fixed with 100 μL of 3.7% formaldehyde for 15 minutes. The formaldehyde was discarded by inverting the plate and tapping it on a thick tissue paper layer to remove traces. The cells were washed and permeabilized with 200 μL PBS+Triton-X 100 solution (hereafter referred to as PBS-Triton, containing 0.1% triton-X 100 in 1×PBS) three times, incubating the cells each time for 5 minutes. 100 μL blocking solution (10% FCS in PBS-Triton) was added and incubated for 1 hour at 25° C. The blocking solution was discarded and cells were incubated with the primary antibody in PBS-Triton at a dilution of 1:500 for 1 hour at RT (25° C.). [The primary antibody is Phospho-AKT (Ser 473); Cell Signaling; Cat. No. 9271]. The primary antibody solution was discarded and the cells were washed 3 times with PBS-Triton solution and incubated with the HRP-conjugated secondary antibody in PBS-Triton at a dilution of 1:500 for 1 hour at RT (25° C.). The cells were washed 3 times with PBS-Triton followed by two washes with PBS (to remove traces of triton-X 100). The OPD (o-phenylene diamine dihydrochloride) substrate was prepared for detection of the signal by dissolving one tablet set (two tablets) of SigmaFast OPD (Sigma, Cat No. P9187) in 20 mL distilled water. It should be protected from light. 100 μL OPD solutions was added to the wells and the plate was incubated in the dark for 3-5 minutes (depending upon the development of the color). The reaction was stopped by adding 50 μL 2 N H2SO4. The absorbance was measured at 490 nm. The values were expressed in the treated samples, in terms of percentage or fold decrease in AKT phosphorylation with respect to the induced sample. PI-103 (Calbiochem, USA) was used as a standard.

STAT3 = STAT3 bioassay (Hela Stat3-luc, luciferase); assay type: cell-based; conditions: Homo sapiens, Oncostatin M induction
Protocol: Cells were seeded (Hela Stat3-luc, ATCC P/N 30-2002) in a white 96 well plate (Nunc cat.no.136101) at a density of 20,000cells/well in 179 μl volume per well (DMEM from Sigma containing 10% FCS). The plate was incubated for 24 hours at 37° C./5% CO2. The cells (wells in triplicates) were then treated with 1 μl/well of 200× stock of the desired compound concentration prepared in 100% DMSO. Curcumin was used as a standard or positive control, added 10 μg/ml in triplicate. DMSO was used as medium control (1 μl/well added in triplicates). The plate was incubated at 37° C./5% CO2 for 1 hour. 20 μl/well Oncostatin M (Oncostatin M, Human, Recombinant, E. coli, Cat.No. 496260, 10 μg from Calbiochem) was added to treated wells, induction control (in triplicate) (1000 ng/ml stock prepared in serum free medium to get final concentration 100 ng/ml). The plate was then incubated for 7-8 hours at 37° C./5% CO2 for induction. A typical assay would consist of triplicate of medium control, triplicate of induction control, triplicate of positive/standard control and test compounds at desired concentration in triplicates. For termination Luciferase assay protocol was followed where the culture medium was removed from all the wells.
200 μl well of PBS was added to remove traces of medium and compound. The PBS was discarded. 40 μl/well of 1× lysis buffer was added to all the wells. The plate was incubated at RT for 20 minutes with intermittent shaking. 100 μl/well of LAB reagent was added to all the wells in dark. {LAB reagent for 1 plate=8 ml Luciferase assay buffer (LAB)+1 ml Coenzyme A (Sigma cat no. C3019) (2.1 mg/ml stock in LAB)+530 μL of ATP (Sigma cat.no.A2383) (5.85 mg/ml stock in LAB)+1 ml luciferin reagent (Promega cat no.245355) (2 mg/ml stock in LAB, protect from light)}.
The luminescence was immediately read on polar star. The values were expressed as percentage inhibition, in terms of treated values to that STAT3 (induction control). IC50 values were calculated from graphs using these percentages.

PI3Kα kinase = molecular target: T2, PI3Kα kinase (Homo sapiens, UniProt P42336); test: Kinase assay (PI3Kα); assay type: biochemical; conditions: for IC50: read-out: IC50 (μM) for PI3K inhibition
T2 construct: purchased Millipore, USA
Protocol: The kinase reaction was carried out in a 25 μL volume in a 1.5 mL microcentrifuge tube. The reaction mixture consisted of kinase buffer (10 mM Hepes, pH 7.5, 50 mM MgCl2), 20 ng PI3Kα kinase (Millipore, USA), 12.5 μg phosphotidylinositol (PI), 10 μM ATP and 1 μCi ^32γ P […]. […] The reactions were incubated at 30° C. for 20 minutes and were terminated by adding 1:1 mixture of MeOH and CHCl3. The tube contents were mixed on a vortex mixer and centrifuged at 10000 rpm for 2 minutes. 10 μL of the organic (lower) phase was spotted on to a TLC plate (silica, mobile phase: n-propanol and 2 M glacial acetic acid in 65:35 ratio). The plates were dried and exposed to an X-ray film. The bands appearing as a result of ^32γ P incorporation in PI were quantitated using the Quantityl)ne (BioRad, USA) densitometry program. PI-103 (Calbiochem, USA) was used as a standard.

TNF-α = test: Human monocyte assay, LPS-stimulated TNF-α; assay type: cell-based; conditions: human monocytes, 1 μg/ml LPS, 5 hours
Protocol: The assay was designed as in the reference, Physiol.
Peripheral blood mononuclear cells (hPBMC) were harvested from human blood and suspended in RPMI 1640 culture medium containing 10% FCS, 100 U/mL penicillin and […] streptomycin (assay medium). Monocytes in the hPBMCs were counted using a Coulter Counter following which the cells were resuspended at 2×10^5 monocytes/mL. A cell suspension containing 2×10^4 monocytes was aliquoted per well of a 96-well plate. Subsequently, the hPBMCs were incubated for 4-5 hours at 37° C., 5% CO2 (During the incubation, the monocytes adhered to the bottom of 96-well plastic culture plate). Following the incubation, the non-adherent lymphocytes were washed with assay medium and the adherent monocytes re-fed with assay medium. After a 48-hour incubation period (37° C., 5% CO2), monocytes were pretreated with various concentrations of representative compounds of present invention (refer to table 6 and 7) (prepared in DMSO) or vehicle (0.5% DMSO) for 30 minutes and stimulated with 1 μg/ml LPS (Escherchia coli 0111:B4, Sigma Chemical Co., St. Louis, Mo.). The incubation was continued for 5 hours at 37° C., 5% CO2. Supernatants were harvested, assayed for IL-6 and TNF-α by ELISA as described by the manufacturer (BD Biosciences, USA). Dexamethasone (10 μM) was used as standard for this assay. […] Biological results for both IL-6 and TNFα are indicated in Table 6 and Table 7 respectively.

[1] = read-out: % Inhibition of mTOR activity at 1 μM

T2 sequence (P42336 whole entry): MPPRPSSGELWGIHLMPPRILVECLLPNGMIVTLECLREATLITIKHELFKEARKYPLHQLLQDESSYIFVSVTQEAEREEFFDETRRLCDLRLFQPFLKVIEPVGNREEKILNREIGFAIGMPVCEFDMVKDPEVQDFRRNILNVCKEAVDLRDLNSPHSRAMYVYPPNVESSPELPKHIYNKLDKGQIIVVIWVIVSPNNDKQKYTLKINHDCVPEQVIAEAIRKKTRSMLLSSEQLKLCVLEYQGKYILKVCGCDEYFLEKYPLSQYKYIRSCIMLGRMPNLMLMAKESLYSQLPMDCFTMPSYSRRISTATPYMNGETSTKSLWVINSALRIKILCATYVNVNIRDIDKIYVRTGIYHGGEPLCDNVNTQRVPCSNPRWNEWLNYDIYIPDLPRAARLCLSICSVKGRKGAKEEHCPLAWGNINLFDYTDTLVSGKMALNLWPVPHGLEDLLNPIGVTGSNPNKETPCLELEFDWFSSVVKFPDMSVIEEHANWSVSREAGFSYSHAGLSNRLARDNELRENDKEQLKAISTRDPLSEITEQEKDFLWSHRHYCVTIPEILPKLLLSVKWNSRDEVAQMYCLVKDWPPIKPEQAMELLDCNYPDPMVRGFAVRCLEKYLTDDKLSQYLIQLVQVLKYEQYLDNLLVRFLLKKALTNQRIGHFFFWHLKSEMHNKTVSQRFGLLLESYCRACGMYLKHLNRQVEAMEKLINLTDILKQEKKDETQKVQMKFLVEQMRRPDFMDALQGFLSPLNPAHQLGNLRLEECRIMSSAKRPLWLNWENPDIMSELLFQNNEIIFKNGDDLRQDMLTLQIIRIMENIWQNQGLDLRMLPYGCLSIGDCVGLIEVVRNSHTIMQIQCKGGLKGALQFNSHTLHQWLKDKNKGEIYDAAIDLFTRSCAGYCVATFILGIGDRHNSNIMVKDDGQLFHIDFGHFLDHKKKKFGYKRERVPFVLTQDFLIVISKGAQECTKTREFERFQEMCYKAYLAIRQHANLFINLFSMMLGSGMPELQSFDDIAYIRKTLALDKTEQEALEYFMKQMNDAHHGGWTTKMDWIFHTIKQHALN
T2 sequence (P27986 whole entry partner): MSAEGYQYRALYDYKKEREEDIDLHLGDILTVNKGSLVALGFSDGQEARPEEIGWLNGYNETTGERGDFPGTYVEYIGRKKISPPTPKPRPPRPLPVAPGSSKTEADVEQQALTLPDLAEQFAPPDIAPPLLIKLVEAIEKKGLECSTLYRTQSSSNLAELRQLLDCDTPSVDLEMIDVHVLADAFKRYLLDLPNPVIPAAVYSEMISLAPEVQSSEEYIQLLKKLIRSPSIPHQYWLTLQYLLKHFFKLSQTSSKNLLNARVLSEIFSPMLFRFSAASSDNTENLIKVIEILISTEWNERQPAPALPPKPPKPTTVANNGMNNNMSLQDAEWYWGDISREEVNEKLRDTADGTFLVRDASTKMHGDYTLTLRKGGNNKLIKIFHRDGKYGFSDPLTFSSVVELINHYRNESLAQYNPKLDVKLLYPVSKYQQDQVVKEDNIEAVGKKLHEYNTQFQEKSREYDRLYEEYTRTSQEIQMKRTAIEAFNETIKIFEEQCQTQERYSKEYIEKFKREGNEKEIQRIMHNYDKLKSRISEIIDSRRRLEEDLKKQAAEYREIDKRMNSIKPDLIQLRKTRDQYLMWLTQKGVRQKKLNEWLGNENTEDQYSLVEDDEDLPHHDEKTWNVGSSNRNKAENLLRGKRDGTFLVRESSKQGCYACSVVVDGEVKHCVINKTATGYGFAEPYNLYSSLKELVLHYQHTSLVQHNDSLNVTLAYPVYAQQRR

| Structure (SMILES) | IC50 (A2780) [nM] | IC50 (A549) [nM] | IC50 (IL-6) [µM] | IC50 (H460) [nM] | inhibition at 1 µM (mTOR; [1]) [%] | IC50 (PI3Kα kinase) [µM] | further results |
| --- | --- | --- | --- | --- | --- | --- | --- |
| Cc1ccc(S(=O)(=O)N(C)N=Cc2cnc3ccc(-c4cccnc4)cn23)cc1 [Example 3, N, 4-dimethyl-N′-((6-(pyridine-3-yl)imidazo[1,2-a]pyridine-3-yl)methylene) benzenesulfonohydrazide] | 10 to 5000 | 10 to 5000 | ≥ 5 | 10 to 5000 | – | – | IC50 (OVCAR 3): 10 to 5000 nM; IC50 (HCT116): 10 to 5000 nM; IC50 (PC3): 10 to 5000 nM |
| CN(N=Cc1cnc2ccc(-c3cccnc3)cn12)S(=O)(=O)c1ccc(Br)cc1 [Example 8, 4-Bromo-N-methyl-N′-((6-(pyridine-3-yl)imidazo[1,2-a]pyridine-3-yl)methylene)benzenesulfonohydrazide] | – | – | – | – | 30 to 50 | – | IC50 (STAT3): 100 to 5000 nM |
| COc1ccc(S(=O)(=O)N(C)N=Cc2cnc3ccc(-c4cccnc4)cn23)cc1 [Example 12, 4-Methoxy-N-methyl-N′-((6-(pyridine-3-yl)imidazo[1,2-a]pyridine-3-yl)methylene)benzenesulfonohydrazide] | 10 to 5000 | 10 to 5000 | – | 10 to 5000 | – | – | IC50 (OVCAR 3): 10 to 5000 nM; IC50 (HCT116): 10 to 5000 nM; IC50 (PC3): 10 to 5000 nM |
| CN(N=Cc1cnc2ccc(-c3cccnc3)cn12)S(=O)(=O)c1ccc(F)c(F)c1 [Example 15, 3,4-difluoro-N-methyl-N′-((6-(pyridine-3-yl)imidazo[1,2-a]pyridine-3-yl)methylene) benzenesulfonohydrazide] | – | – | – | – | 30 to 50 | 0.5 to 1 | IC50 (STAT3): 100 to 5000 nM |
| CN(N=Cc1cnc2ccc(-c3cccnc3)cn12)S(=O)(=O)c1cccc(Cl)c1F [Example 17, 3-Chloro-2-fluoro-N-methyl-N′-((6-(pyridine-3-yl)imidazo[1,2-a]pyridine-3-yl)methylene) benzenesulfonohydrazide] | – | – | 0.001 to 5 | – | 30 to 50 | 0.01 to 0.5 | – |
| CN(N=Cc1cnc2ccc(-c3cccnc3)cn12)S(=O)(=O)c1cc(C(F)(F)F)cc(C(F)(F)F)c1 [Example 23, N-methyl-N′-((6-(pyridine-3-yl)imidazo[1,2-a]pyridine-3-yl)methylene)-3,5-bis(trifluoromethyl)benzenesulfonohydrazide] | 10 to 5000 | 10 to 5000 | 0.001 to 5 | 10 to 5000 | 30 to 50 | 0.01 to 0.5 | – |
| CN(N=Cc1cnc2ccc(-c3cccnc3)cn12)S(=O)(=O)c1cccs1 [Example 29, N-methyl-N′-((6-(pyridine-3-yl)imidazo[1,2-a]pyridine-3-yl)methylene) thiophene-2-sulfonohydrazide] | 10 to 5000 | 10 to 5000 | – | 10 to 5000 | – | – | IC50 (OVCAR 3): 10 to 5000 nM; IC50 (HCT116): 10 to 5000 nM; IC50 (PC3): 10 to 5000 nM |
| COc1ccc(F)cc1S(=O)(=O)N(C)/N=C/c1cnc2ccc(-c3cccnc3)cn12 [Example 45, (E)-5-fluoro-2-methoxy-N-methyl-N′-((6-(pyridin-3-yl)imidazo[1,2-a]pyridin-3-yl)methylene)benzenesulfonohydrazide] | – | 10 to 5000 | 0.001 to 5 | 10 to 5000 | – | – | IC50 (TNF-α): 1 to 1000 nM |
| CCN(/N=C/c1cnc2ccc(-c3cccnc3)cn12)S(=O)(=O)c1cc([N+](=O)[O-])ccc1C [Example 84] | – | – | 0.001 to 5 | – | 30 to 50 | 0.01 to 0.5 | – |
| Cc1cc(-c2cccnc2)cn2c(/C=N/N(C)S(=O)(=O)c3ccc(F)c(C#N)c3)cnc12 [Example 105, (E)-3-cyano-4-fluoro-N-methyl-N′-((8-methyl-6-(pyridin-3-yl)imidazo[1,2-a]pyridin-3-yl)methylene)benzenesulfonohydrazide] | – | – | 0.001 to 5 | – | – | – | IC50 (TNF-α): 1 to 1000 nM |
| Cc1ccc(F)cc1S(=O)(=O)N(C)/N=C/c1cnc2ccc(-c3cc4ccccc4[nH]3)cn12 [Example 115, (E)-N′-((6-(1H-indol-2-yl)imidazo[1,2-a]pyridin-3-yl)methylene)-5-fluoro-N,2-dimethylbenzenesulfonohydrazide] | – | – | ≥ 5 | – | – | 0.01 to 0.5 | IC50 (mTOR): 5000 to 10000 nM; IC50 (STAT3): 5000 to 10000 nM |
| Oc1cccc(-c2nc(N3CCOCC3)c3oc4ncccc4c3n2)c1 [PI-103, reference compound] | – | – | – | – | – | – | inhibition at 1 µM (mTOR; read-out: % Inhibition of mTOR activity at 1 μM (number, standard)): 50%; inhibition at 0.1 µM (PI3Kα kinase; at 100 nM): 80% |
